Source: patent US20080220080A1, “Multiparticulate Pharmaceutical form Comprising Pellets with a Substance Having a Modular Effect in Relation to Active Ingredient Release” (RÖHM GMBH, priority 2005, published 2008)
Entries after “also recorded” stand apart in the source; their conditions may differ.

Assays:
[1] = active ingredient delivery in PhEur phosphate buffer of pH 6.8 in a USP dissolution tester (theophylline pellets); assay type: physicochemical; settings: substance in pellet core under EUDRAGIT RS coating
[2] = in vitro activity of modulating substances in purified water and phosphate buffer pH 6.8; assay type: physicochemical; settings: purified water vs phosphate buffer pH 6.8
Source text: In the human and animal gastrointestinal tract the concentration of ions may vary to a certain extent and thus may influence the activity of the modulating substances. For reproducible in-vivo results substances having a modulating effect, which are not or only a little influenced by varying ionic strength are preferred.

| SMILES | effect of the modulating substance on the rate of active ingredient delivery [1] | in vitro activity of the modulating substance in purified water compared with phosphate buffer pH 6.8 (Pharm. Eur.) [2] | effect of the modulating substance on the rate of active ingredient delivery ([1]; listed as Na acetate) | effect of the modulating substance on the rate of active ingredient delivery ([1]; listed as NaCl) | effect of the modulating substance on the rate of active ingredient delivery ([1]; listed as Na succinate) |
| --- | --- | --- | --- | --- | --- |
| O=C([O-])CC(O)(CC(=O)[O-])C(=O)[O-].[Na+].[Na+].[Na+] [Na citrate] | decrease the rate of active ingredient delivery |  |  |  |  |
| O=C(O)CC(O)(CC(=O)O)C(=O)O [citric acid] | accelerating effect; also recorded: increase the rate of active ingredient delivery | almost the same activity |  |  |  |
| CC(=O)[O-].[Na+] [sodium acetate] | accelerating effect |  | increase the rate of active ingredient delivery |  |  |
| [Cl-].[Na+] [sodium chloride] | reducing effect | almost the same activity |  | decrease the rate of active ingredient delivery |  |
| O=C([O-])CCC(=O)[O-].[Na+].[Na+] [sodium succinate] | accelerating effect | almost the same activity |  |  | increase the rate of active ingredient delivery |
